Where “and” joins values, the source holds several entries; their conditions need not be identical. Identical values can stand only once. Like-named read-outs stand apart in the source and are kept apart here. Square brackets hold non-standard residues; d marks the D form. Ends that are not written are not given here. Peptide text beside a SMILES is read from it. pY = N[C@@H](Cc1ccc(OP(=O)(O)O)cc1)C(=O)O
Experiments:
[1] = target: T1, RasGAP^232 (p120RasGAP N-SH2, SH3, C-SH2, residues 174–444) (Homo sapiens, UniProt P20936, C236S/C261S/C372S/C402S); assay: Isothermal titration calorimetry, WT RasGAP^232 with phosphopeptides; type: binding
T1 construct: (residues 174–444, termed RasGAP^232); hexahistidine (TEV-cleavable) (N, cleaved yes); made in house; host or cells: E. coli Rosetta (DE3)
T1 sequence (P20936 174-444 C236S/C261S/C372S/C402S): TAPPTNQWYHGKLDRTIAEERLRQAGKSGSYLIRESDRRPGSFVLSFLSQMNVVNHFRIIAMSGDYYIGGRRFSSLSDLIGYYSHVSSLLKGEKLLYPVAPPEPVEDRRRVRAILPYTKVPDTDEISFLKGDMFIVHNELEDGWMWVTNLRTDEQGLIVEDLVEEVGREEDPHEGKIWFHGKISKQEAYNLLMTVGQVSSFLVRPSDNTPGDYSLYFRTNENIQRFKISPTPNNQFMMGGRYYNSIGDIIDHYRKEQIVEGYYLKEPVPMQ
Protocol: (§1) We expressed and purified the region of RasGAP encompassing both SH2 domains with a construct that includes the N-SH2, SH3, and C-SH2 domains (residues 174–444, termed RasGAP^232 ([50])) (Figs. 1A and S2A). Separately, we synthesized peptides containing both phosphotyrosine residues for EphB4 and Dok1 (Fig. 1C). Our previous isothermal titration calorimetry (ITC) study assessed the affinity of RasGAP^232 for doubly phosphorylated p190RhoGAP-A peptide and found a Kd of 10 ± 6 nM for tandem engagement of both phosphotyrosines by both SH2 domains ([50]).
Synthetic peptides were purchased from GenScript and contain N-terminal acetylation and C-terminal amidation for stability. The doubly phosphorylated EphB4 peptide (UniProt ID P54760) used in ITC and SAXS experiments contains residues 586 to 602 (GTKV[pTyr]IDPFT[pTyr]EDPNEA). The singly phosphorylated EphB4 peptides pY590 and pY596 used in ITC experiments contain the residues 586 to 595 (GTKV[pTyr]IDPFT) and residues 592 to 602 (DPFT[pTyr]EDPNE), respectively. The p190RhoGAP peptide (UniProt ID Q9NRY4) used in SAXS experiments contains the residues 1083 to 1111 (SD[pTyr]AEPMDAVVKPRNEEENI[pTyr]SVPH). The Dok1 peptide (UniProt ID Q99704) used in ITC and SAXS experiments contains the residues 291 to 322 (SPPAL[pTyr]AEPLDSLRIAPCPSQDSL[pTyr]SDPLDST). Lyophilized peptides were reconstituted in water, and less soluble peptides (pYpYEphB4 and pY590) were spiked with 20 mM Tris pH 8 or 10 mM NaOH to increase solubility. Concentrations of stock peptides are as follows: pYpY190 stock concentration is 10 mM; pYpYEphB4 stock concentration is 2.5 mM; Dok1 stock concentration is 5.5 mM; pY596 stock concentration is 10 mM; and pY590 stock concentration is 8 mM.
Purified RasGAP^232 protein and solubilized peptides were dialyzed overnight against buffer containing 20 mM Tris pH 8, 250 mM NaCl in Slide-A-Lyzer 3 ml 10 kDa molecular weight cut off cassettes (Spectra-Por) and Micro Float-A-Lyzer 0.1 to 0.2 ml, 0.1 to […] molecular weight cut off devices (Spectra-Por), respectively. Protein and peptide concentrations were determined by A280 measured on a Nanodrop Lite (Thermo Fisher Scientific) instrument using extinction coefficients of 45,840 M^−1 cm^−1 for RasGAP^232 (and mutants), 917 M^−1 cm^−1 for the doubly phosphorylated EphB4 peptide, and 458.5 M^−1 cm^−1 for the singly phosphorylated EphB4 peptides as determined by ([74]). Dok1 peptide concentration was confirmed using Amino Acid Analysis performed at UC Davis Molecular Structure Facility. Samples were centrifuged for 10 min at 4 °C and degassed for 7 min using a Degassing Station (TA Instruments). ITC experiments were performed on a Nano ITC (TA Instruments) by loading protein into the 190 μl sample cell and titrating 20 times with 2.5 μl peptide in the titration syringe. Concentrations for sample cell and syringe for each trial are included in Table S1. The data were analyzed in NanoAnalyze software (TA Instrument) using blank (constant) and independent models (https://www.tainstruments.com/itcrun-dscrun-nanoanalyze-software/).

[2] = target: T1, RasGAP^232 (p120RasGAP N-SH2, SH3, C-SH2, residues 174–444); conditions: ref ([50]), cited from earlier work
Text: as §1, with “Table 1 Isothermal titration calorimetry measurements for p120RasGAP with phosphotyrosine-containing binding partners | column: Kd (μM); n; ΔH (kJ/mol); ΔS (J/mol∗K) || We” for “We”, “([50]). In our current study, titration of the dou ...” for “([50]).”

[3] = ITC, average of trials (Table S1)

## CC[C@H](C)[C@H](NC(=O)[C@H](CCCNC(=N)N)NC(=O)[C@H](CC(C)C)NC(=O)[C@H](CO)NC(=O)[C@H](CC(=O)O)NC(=O)[C@H](CC(C)C)NC(=O)[C@@H]1CCCN1C(=O)[C@H](CCC(=O)O)NC(=O)[C@H](C)NC(=O)[C@H](Cc1ccc(OP(=O)(O)O)cc1)NC(=O)[C@H](CC(C)C)NC(=O)[C@H](C)NC(=O)[C@@H]1CCCN1C(=O)[C@@H]1CCCN1C(=O)[C@H](CO)NC(C)=O)C(=O)N[C@@H](C)C(=O)N1CCC[C@H]1C(=O)N[C@@H](CS)C(=O)N1CCC[C@H]1C(=O)N[C@@H](CO)C(=O)N[C@@H](CCC(N)=O)C(=O)N[C@@H](CC(=O)O)C(=O)N[C@@H](CO)C(=O)N[C@@H](CC(C)C)C(=O)N[C@@H](Cc1ccc(OP(=O)(O)O)cc1)C(=O)N[C@@H](CO)C(=O)N[C@@H](CC(=O)O)C(=O)N1CCC[C@H]1C(=O)N[C@@H](CC(C)C)C(=O)N[C@@H](CC(=O)O)C(=O)N[C@@H](CO)C(=O)N[C@H](C(N)=O)[C@@H](C)O [pYpY Dok1] (Ac-SPPAL[pY]AEPLDSLRIAPCPSQDSL[pY]SDPLDST-NH2)
[1]; ITC stoichiometry, mean ± SD of trials
  n: 0.8 ± 0.1
[1]; ITC, 20 mM Tris pH 8, 250 mM NaCl, independent model, mean ± SD of trials (n = 4 EphB4, n = 3 Dok1)
  Kd: 30 ± 20 nM
[1]; [3]
  -T∆S: 8.37 kcal/mol
  Ka: 40 µM⁻¹
  ∆G: -10.3 kcal/mol
[1]; ITC, mean ± SD of trials
  ΔH: -18.6 kcal/mol and -18.6 ± 0.72 kcal/mol
  ΔS: -120 J/mol∗K and −120 ± 14 J/mol∗K
[1]; trial 1, ITC
  -T∆S: 7.17 kcal/mol
  Ka: 63 µM⁻¹
  ∆G: -10.5 kcal/mol
  ∆H: -17.9 kcal/mol
  ∆S: -102 J/mol*K
[1]; trial 2, ITC
  -T∆S: 9.32 kcal/mol
  Ka: 21 µM⁻¹
  ∆G: -10 kcal/mol
  ∆H: -19.4 kcal/mol
  ∆S: -131 J/mol*K
[1]; trial 3, ITC
  -T∆S: 8.37 kcal/mol
  Ka: 43 µM⁻¹
  ∆G: -10.5 kcal/mol
  ∆H: -18.6 kcal/mol
  ∆S: -116 J/mol*K

## SD[pY]AEPMDAVVKPRNEEENI[pY]SVPH [pYpY p190RhoGAP-A, Doubly phosphorylated p190RhoGAP-A peptide (pY1087, pY1105)]
[1]; ITC Kd, compared with individual SH2 interactions (Table 1, ref [60])
  affinity tighter than individual SH2–phosphotyrosine interactions: 15- to 30 fold
[2]; ITC stoichiometry
  n: 0.6 ± 0.1
[2]; ITC
  Kd: 10 ± 6 nM
  ΔH: -31.1 ± 4.78 kcal/mol
  ΔS: −281 ± 77 J/mol∗K
